# Marks after values point to notes of the source that are not given here.
# Key:
# [1] = tested on: testosterone, prostate specific antigen (PSA), prostate volume and weight; assay: 39-week oral pharmacology and toxicology study in male cynomolgus monkey (13-week interim); conditions: for Mean serum PSA level / Percentage change of mean PSA levels compared to baseline: 4-week; for Percentage change of mean prostate volumes compared to baseline / Mean prostate volumes (ratio): 6-week; for Mean prostate volumes (ratio): TRUS, normalized to body weight; for Mean prostate weights at necropsy / Percentage change of mean prostate weights compared to baseline: 13-week; for reduction of prostate volume: six weeks; for reduction of mean prostate weights: thirteen weeks
# [2] = molecular target: hERG channel (Homo sapiens (Human), UniProt Q12809); assay: hERG channel inhibition in vitro; assay type: cell-based
# Method: Compound IV exerts little or no in vitro inhibitory effects (IC50≧300 μM) on the hERG channel.
# [3] = 1 mg/kg/day oral, Estimated final concentrations
# [4] = 1 mg/kg/day oral, Quantifiable concentrations only
# [5] = 10 mg/kg/day oral, Estimated final concentrations
# [6] = 10 mg/kg/day oral, Quantifiable concentrations only
# [7] = 100 mg/kg/day oral, Estimated final concentrations
# [8] = 100 mg/kg/day oral, Quantifiable concentrations only
# [9] = Day 1, 1 mg/kg/day oral, Estimated final concentrations
# [10] = Day 1, 1 mg/kg/day oral, Quantifiable concentrations only
# [11] = Day 1, 10 mg/kg/day oral, Estimated final concentrations
# [12] = Day 1, 10 mg/kg/day oral, Quantifiable concentrations only
# [13] = Day 1, 100 mg/kg/day oral, Estimated final concentrations
# [14] = Day 1, 100 mg/kg/day oral, Quantifiable concentrations only
# [15] = Day 3, 1 mg/kg/day oral, Estimated final concentrations
# [16] = Day 3, 1 mg/kg/day oral, Quantifiable concentrations only
# [17] = Day 3, 10 mg/kg/day oral, Estimated final concentrations
# [18] = Day 3, 10 mg/kg/day oral, Quantifiable concentrations only
# [19] = Day 3, 100 mg/kg/day oral, Estimated final concentrations
# [20] = Day 3, 100 mg/kg/day oral, Quantifiable concentrations only
# [21] = Day 7, 1 mg/kg/day oral, Estimated final concentrations
# [22] = Day 7, 1 mg/kg/day oral, Quantifiable concentrations only
# [23] = Day 7, 10 mg/kg/day oral, Estimated final concentrations
# [24] = Day 7, 10 mg/kg/day oral, Quantifiable concentrations only
# [25] = Day 7, 100 mg/kg/day oral, Estimated final concentrations
# [26] = Day 7, 100 mg/kg/day oral, Quantifiable concentrations only
# [27] = Day 14, 1 mg/kg/day oral, Estimated final concentrations
# [28] = Day 14, 1 mg/kg/day oral, Quantifiable concentrations only
# [29] = Day 14, 10 mg/kg/day oral, Estimated final concentrations
# [30] = Day 14, 10 mg/kg/day oral, Quantifiable concentrations only
# [31] = Day 14, 100 mg/kg/day oral, Estimated final concentrations
# [32] = Day 14, 100 mg/kg/day oral, Quantifiable concentrations only
# [33] = Day 28, 1 mg/kg/day oral, Estimated final concentrations
# [34] = Day 28, 1 mg/kg/day oral, Quantifiable concentrations only
# [35] = Day 28, 10 mg/kg/day oral, Estimated final concentrations
# [36] = Day 28, 10 mg/kg/day oral, Quantifiable concentrations only
# [37] = Day 28, 100 mg/kg/day oral, Estimated final concentrations
# [38] = Day 28, 100 mg/kg/day oral, Quantifiable concentrations only
# [39] = Day 64, 1 mg/kg/day oral, Estimated final concentrations
# [40] = Day 64, 1 mg/kg/day oral, Quantifiable concentrations only
# [41] = Day 64, 10 mg/kg/day oral, Estimated final concentrations
# [42] = Day 64, 10 mg/kg/day oral, Quantifiable concentrations only
# [43] = Day 64, 100 mg/kg/day oral, Estimated final concentrations
# [44] = Day 64, 100 mg/kg/day oral, Quantifiable concentrations only
# [45] = Day 90, 1 mg/kg/day oral, Estimated final concentrations
# [46] = Day 90, 1 mg/kg/day oral, Quantifiable concentrations only
# [47] = Day 90, 10 mg/kg/day oral, Estimated final concentrations
# [48] = Day 90, 10 mg/kg/day oral, Quantifiable concentrations only
# [49] = Day 90, 100 mg/kg/day oral, Estimated final concentrations
# [50] = Day 90, 100 mg/kg/day oral, Quantifiable concentrations only
# hERG channel, sequence (Q12809 whole entry): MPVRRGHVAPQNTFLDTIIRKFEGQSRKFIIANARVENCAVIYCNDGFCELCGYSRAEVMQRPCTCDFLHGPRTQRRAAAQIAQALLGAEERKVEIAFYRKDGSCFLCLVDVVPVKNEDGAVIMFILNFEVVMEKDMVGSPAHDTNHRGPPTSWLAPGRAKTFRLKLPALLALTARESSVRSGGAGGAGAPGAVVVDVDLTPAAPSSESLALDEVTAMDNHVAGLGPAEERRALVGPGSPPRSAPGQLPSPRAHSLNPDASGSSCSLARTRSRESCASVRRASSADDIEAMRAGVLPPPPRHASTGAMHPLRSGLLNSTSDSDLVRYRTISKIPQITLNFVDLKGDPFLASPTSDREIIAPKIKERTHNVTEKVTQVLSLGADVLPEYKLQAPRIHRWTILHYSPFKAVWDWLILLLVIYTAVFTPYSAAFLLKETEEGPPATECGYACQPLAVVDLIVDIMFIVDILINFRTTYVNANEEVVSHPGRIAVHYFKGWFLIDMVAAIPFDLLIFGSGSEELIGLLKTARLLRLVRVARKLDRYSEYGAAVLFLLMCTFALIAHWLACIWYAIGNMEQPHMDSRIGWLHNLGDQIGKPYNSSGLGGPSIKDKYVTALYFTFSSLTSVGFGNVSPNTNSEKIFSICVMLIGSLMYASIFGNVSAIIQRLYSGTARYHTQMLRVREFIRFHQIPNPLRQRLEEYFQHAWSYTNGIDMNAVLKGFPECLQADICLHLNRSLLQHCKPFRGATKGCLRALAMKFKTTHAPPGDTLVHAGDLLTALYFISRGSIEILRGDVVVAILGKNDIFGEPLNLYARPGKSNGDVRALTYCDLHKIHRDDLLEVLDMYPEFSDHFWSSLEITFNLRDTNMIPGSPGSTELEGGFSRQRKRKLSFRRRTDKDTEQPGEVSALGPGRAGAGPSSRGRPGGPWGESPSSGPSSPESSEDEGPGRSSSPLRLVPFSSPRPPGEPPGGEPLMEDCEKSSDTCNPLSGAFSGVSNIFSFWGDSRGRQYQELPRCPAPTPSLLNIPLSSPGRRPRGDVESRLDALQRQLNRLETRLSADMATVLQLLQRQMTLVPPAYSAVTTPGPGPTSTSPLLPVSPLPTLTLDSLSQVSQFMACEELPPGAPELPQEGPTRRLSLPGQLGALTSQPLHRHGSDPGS
smiles,measurement,setting,value
"O=C(c1ccc(O)c(F)c1)N(c1ccc(O)cc1)c1ccc(F)cc1 [Compound IV, 3-fluoro-N-(4-fluorophenyl)-4-hydroxy-N-(4-hydroxyphenyl)benzamide]",PSA reduction (in mean),[1]; 10 mg/kg for 4 weeks,69%
same,PSA reduction (in mean),[1]; 100 mg/kg for 4 weeks,87%
same,body weight reduction,"[1]; 100 mg/kg, 91 days (FIG. 14)",~20%
same,Mean serum PSA level,[1]; [3],0.9 ng/mL
same,Percentage change of mean PSA levels compared to baseline,[1]; [3],−11%
same,Mean serum PSA level,[1]; [4],0.9 ng/mL
same,Percentage change of mean PSA levels compared to baseline,[1]; [4],−11%
same,Mean serum PSA level,[1]; [5],0.3* ng/mL
same,Percentage change of mean PSA levels compared to baseline,[1]; [5],−69%
same,Mean serum PSA level,[1]; [6],0.3 ng/mL
same,Percentage change of mean PSA levels compared to baseline,[1]; [6],−64%
same,Mean serum PSA level,[1]; [7],0.1^& ng/mL
same,Percentage change of mean PSA levels compared to baseline,[1]; [7],−87%
same,Mean serum PSA level,[1]; [8],0.3 ng/mL
same,Percentage change of mean PSA levels compared to baseline,[1]; [8],−72%
same,Percentage change of mean prostate volumes compared to baseline,[1]; 1 mg/kg/day oral,6.8%
same,Mean prostate volumes (ratio),[1]; 1 mg/kg/day oral,468
same,Percentage change of mean prostate volumes compared to baseline,[1]; 10 mg/kg/day oral,−25%
same,Mean prostate volumes (ratio),[1]; 10 mg/kg/day oral,327
same,Percentage change of mean prostate volumes compared to baseline,[1]; 100 mg/kg/day oral,−45%
same,Mean prostate volumes (ratio),[1]; 100 mg/kg/day oral,242
same,Mean prostate weights at necropsy,[1]; 1 mg/kg/day oral,1.8 grams
same,Percentage change of mean prostate weights compared to baseline,[1]; 1 mg/kg/day oral,1.7%
same,Mean prostate weights at necropsy,[1]; 10 mg/kg/day oral,1.3 grams
same,Percentage change of mean prostate weights compared to baseline,[1]; 10 mg/kg/day oral,−24%
same,Mean prostate weights at necropsy,[1]; 100 mg/kg/day oral,1.4 grams
same,Percentage change of mean prostate weights compared to baseline,[1]; 100 mg/kg/day oral,−21%
same,gynecomastia or hyperestrogenicity,[1]; 91 days (FIG. 14),No sign of gynecomastia or hyperestrogenicity
same,Mean serum testosterone level,[1]; [9],11 ng/mL
same,Percentage change of mean serum testosterone levels compared to baseline,[1]; [9],44%
same,Mean serum testosterone level,[1]; [10],11 ng/mL
same,Percentage change of mean testosterone levels compared to baseline,[1]; [10],44%
same,Mean serum testosterone level,[1]; [11],7.6 ng/mL
same,Percentage change of mean serum testosterone levels compared to baseline,[1]; [11],54%
same,Mean serum testosterone level,[1]; [12],7.6 ng/mL
same,Percentage change of mean testosterone levels compared to baseline,[1]; [12],54%
same,Mean serum testosterone level,[1]; [13],8.0 ng/mL
same,Percentage change of mean serum testosterone levels compared to baseline,[1]; [13],82%
same,Mean serum testosterone level,[1]; [14],8.0 ng/mL
same,Percentage change of mean testosterone levels compared to baseline,[1]; [14],82%
same,Mean serum testosterone level,[1]; [15],7.4 ng/mL
same,Percentage change of mean serum testosterone levels compared to baseline,[1]; [15],1.8%
same,Mean serum testosterone level,[1]; [16],7.4 ng/mL
same,Percentage change of mean testosterone levels compared to baseline,[1]; [16],1.8%
same,Mean serum testosterone level,[1]; [17],5.1 ng/mL
same,Percentage change of mean serum testosterone levels compared to baseline,[1]; [17],3.5%
same,Mean serum testosterone level,[1]; [18],5.1 ng/mL
same,Percentage change of mean testosterone levels compared to baseline,[1]; [18],3.5%
same,suppression of serum testosterone relative to the baseline value,"[1]; Day 3, 100 mg/kg/day oral",60%
same,Mean serum testosterone level,[1]; [19],1.8* ng/mL
same,Percentage change of mean serum testosterone levels compared to baseline,[1]; [19],−60%
same,Mean serum testosterone level,[1]; [20],1.8 ng/mL
same,Percentage change of mean testosterone levels compared to baseline,[1]; [20],−60%
same,Mean serum testosterone level,[1]; [21],6.7 ng/mL
same,Percentage change of mean serum testosterone levels compared to baseline,[1]; [21],−8.1%
same,Mean serum testosterone level,[1]; [22],6.7 ng/mL
same,Percentage change of mean testosterone levels compared to baseline,[1]; [22],−8.1%
same,Mean serum testosterone level,[1]; [23],7.7 ng/mL
same,Percentage change of mean serum testosterone levels compared to baseline,[1]; [23],57%
same,Mean serum testosterone level,[1]; [24],7.7 ng/mL
same,Percentage change of mean testosterone levels compared to baseline,[1]; [24],57%
same,suppression of serum testosterone relative to the baseline value,"[1]; Day 7, 100 mg/kg/day oral",51%
same,Mean serum testosterone level,[1]; [25],2.2* ng/mL
same,Percentage change of mean serum testosterone levels compared to baseline,[1]; [25],−51%
same,Mean serum testosterone level,[1]; [26],2.2 ng/mL
same,Percentage change of mean testosterone levels compared to baseline,[1]; [26],−51%
same,Mean serum testosterone level,[1]; [27],3.8 ng/mL
same,Percentage change of mean serum testosterone levels compared to baseline,[1]; [27],−48%
same,Mean serum testosterone level,[1]; [28],3.8 ng/mL
same,Percentage change of mean testosterone levels compared to baseline,[1]; [28],−48%
same,Mean serum testosterone level,[1]; [29],7.1 ng/mL
same,Percentage change of mean serum testosterone levels compared to baseline,[1]; [29],45%
same,Mean serum testosterone level,[1]; [30],7.1 ng/mL
same,Percentage change of mean testosterone levels compared to baseline,[1]; [30],45%
same,suppression of serum testosterone relative to the baseline value,"[1]; Day 14, 100 mg/kg/day oral",42%
same,Mean serum testosterone level,[1]; [31],2.6 ng/mL
same,Percentage change of mean serum testosterone levels compared to baseline,[1]; [31],−42%
same,Mean serum testosterone level,[1]; [32],2.6 ng/mL
same,Percentage change of mean testosterone levels compared to baseline,[1]; [32],−42%
same,Mean serum testosterone level,[1]; [33],4.7 ng/mL
same,Percentage change of mean serum testosterone levels compared to baseline,[1]; [33],−35%
same,Mean serum testosterone level,[1]; [34],4.7 ng/mL
same,Percentage change of mean testosterone levels compared to baseline,[1]; [34],−35%
same,Mean serum testosterone level,[1]; [35],9.4 ng/mL
same,Percentage change of mean serum testosterone levels compared to baseline,[1]; [35],92%
same,Mean serum testosterone level,[1]; [36],9.4 ng/mL
same,Percentage change of mean testosterone levels compared to baseline,[1]; [36],92%
same,suppression of serum testosterone relative to the baseline value,"[1]; Day 28, 100 mg/kg/day oral",79%
same,Mean serum testosterone level,[1]; [37],0.9* ng/mL
same,Percentage change of mean serum testosterone levels compared to baseline,[1]; [37],−79%
same,Mean serum testosterone level,[1]; [38],0.9 ng/mL
same,Percentage change of mean testosterone levels compared to baseline,[1]; [38],−79%
same,Mean serum testosterone level,[1]; [39],4.3 ng/mL
same,Percentage change of mean serum testosterone levels compared to baseline,[1]; [39],−41%
same,Mean serum testosterone level,[1]; [40],4.3 ng/mL
same,Percentage change of mean testosterone levels compared to baseline,[1]; [40],−41%
same,Mean serum testosterone level,[1]; [41],5.4 ng/mL
same,Percentage change of mean serum testosterone levels compared to baseline,[1]; [41],11%
same,Mean serum testosterone level,[1]; [42],5.4 ng/mL
same,Percentage change of mean testosterone levels compared to baseline,[1]; [42],11%
same,suppression of serum testosterone relative to the baseline value,"[1]; Day 64, 100 mg/kg/day oral",92%
same,Mean serum testosterone level,[1]; [43],0.3* ng/mL
same,Percentage change of mean serum testosterone levels compared to baseline,[1]; [43],−92%
same,Mean serum testosterone level,[1]; [44],0.3 ng/mL
same,Percentage change of mean testosterone levels compared to baseline,[1]; [44],−92%
same,Mean serum testosterone level,[1]; [45],4.2 ng/mL
same,Percentage change of mean serum testosterone levels compared to baseline,[1]; [45],−42%
same,Mean serum testosterone level,[1]; [46],4.2 ng/mL
same,Percentage change of mean testosterone levels compared to baseline,[1]; [46],−42%
same,Mean serum testosterone level,[1]; [47],4.6 ng/mL
same,Percentage change of mean serum testosterone levels compared to baseline,[1]; [47],−5.5%
same,Mean serum testosterone level,[1]; [48],4.6 ng/mL
same,Percentage change of mean testosterone levels compared to baseline,[1]; [48],−5.5%
same,Mean serum testosterone level,[1]; [49],0.2* ng/mL
same,Percentage change of mean serum testosterone levels compared to baseline,[1]; [49],−96%
same,suppression of serum testosterone relative to the baseline value,[1]; [49],96%
same,Mean serum testosterone level,[1]; [50],0.2 ng/mL
same,Percentage change of mean testosterone levels compared to baseline,[1]; [50],−95%
same,monkeys with testosterone below the limit of quantification,"[1]; after 90 days, 100 mg/kg/day oral, LLOQ 0.246 ng/mL",6 of 10
same,testosterone flare,[1]; any dose up to 100 mg/kg/day,not observed
same,"effects on platelet aggregation, prothrombin time (PT) or activated partial thromboplastin time (APTT)","[1]; cynomolgus monkey, in vivo",No apparent effects
same,reduction of prostate volume,[1]; 10 mg/kg,25%
same,reduction of prostate volume,[1]; 100 mg/kg,45%
same,reduction of mean prostate weights,[1]; 10 mg/kg/day,24%
same,reduction of mean prostate weights,[1]; 100 mg/kg/day,21%
same,IC50,[2],≥ 300 µM

# Source: patent US8546451B2 (priority 2005, dated 2013)
